The values below come from patent publication US20230372374A1, “VETERINARY PHARMACEUTICAL FORMULATIONS” (INCREVET, INC., priority 2022, published 2023).

Values after ≈ are worked out from the molar mass of the structure shown.

Data set [1] in a line: Pharmacokinetics in cats after capsule dosing. In kind it is in vivo, cat. Here is the method:
Capsules were evaluated using cohorts of four laboratory cats that were administered test article at multiple dose levels. The test article was prepared in size 4 gelatin capsules and administered by mouth to animals that had been fasted 12 h. The capsules were loaded with 5% bexagliflozin (w/w) in microcrystalline cellulose for the 0.1, 0.3 and 1.0 mg kg^−1 dose levels, and with bexagliflozin alone for the 3.0 and 10.0 mg kg^−1 dose levels. The cats were provided with food ad libitum 2 hours after dosing.
Blood samples were collected from the acral vein at the scheduled time points. Samples of 0.1 to 0.3 mL were drawn into 1.5 mL tubes containing dipotassium EDTA as an anticoagulant. The samples were immediately mixed by gently inverting the tube approximately 8 times. Immediately following mixing, the tubes were placed on crushed ice and kept chilled until centrifugation. Samples were centrifuged within 1 hour of collection. Following centrifugation, the tubes were returned to crushed ice and supernatants transferred into microcentrifuge tubes and frozen. The tubes were stored frozen in a −20° C. freezer at the testing facility prior to shipment for analysis. Plasma bexagliflozin concentration was measured by an LC-MS/MS method. Separations were performed using an Agilent 1200 equipped with a Thermo Betasil C18 50×2.1 mm, 5 μm packing column or a Phenomenex Gemini C18 50×4.5 mm, 5 μm packing column. Analyte detection was performed with an ABI 4000 or AB Sciex QTRAP 5500 mass spectrometer.
The volume of distribution was relatively large, ranging from 5.5 to 11.9 L kg^−1, with no dose-dependent trend. […] The majority of the variation in half-life was attributable to variation in the volume of distribution, and the clearance was relatively constant at 1.46±0.24 L h^−1 kg^−1. The AUC0-24 was proportional to dose over the entire dosing range and a linear regression with a constrained intercept of 0 ng h mL^−1 at 0 mg kg^−1 gave a slope of 762 ng h mL^−1 per mg kg^−1 of dose (FIG. 2).

For data set [2], the system named is renal glucose reuptake. As to the kind of experiment: Urinary glucose excretion in cats after capsule dosing. The data set is classed as in vivo, cat. Here is the method:
The pharmacodynamics of inhibitors of renal glucose reuptake can be easily monitored by measurement of urinary glucose excretion (UGE). The sodium-linked glucose transporters SGLT1 and SGLT2 are expressed in the second and first segments, respectively, (pars recta and pars convoluta) of the renal proximal tubule.
As described above, 4 laboratory cats were administered bexagliflozin as either a blend with microcrystalline cellulose or as pure bexagliflozin, in each case in gelatin capsules. Bexagliflozin induced a significant glucosuria in healthy cats. At 3 mg kg^−1, total urinary glucose excreted over a period of 24 hours was 4.78 g (Table 14). […] Glucosuria following test article administration in the fasted state was higher than glucosuria following administration in the fed state (Table 14, bottom row).

Data set [3] has as its system renal glucose reuptake. Nature of the data set: Urinary glucose excretion in cats after DEGEE/glycerol liquid formulations. In kind it is in vivo, cat. To be noted: daily oral DEGEE/glycerol liquid formulations F16D-V1 to F16D. As to the method: The pharmacodynamics produced by liquid formulations of bexagliflozin were also evaluated. Cats were fed daily with Whiskas Cat Food in Can (Ocean Fish) and bexagliflozin was delivered orally daily with different formulations derived from F16D as shown in Table 15.
Cats were dosed with F16D-V0 (0.1 mL kg^−1) for two days (vehicle control), and urine samples were collected on the second day for glucose excretion analysis. Similarly, cats were dosed daily with F16D-V1 (0.1 mL kg^−1) from Day 1 to Day 4 at 0.1 mg kg^−1 dose, and urine samples were collected from Day 2 to Day 4 for glucose excretion analysis; cats were dosed daily with F16D-V2 (0.1 mL kg^−1) from Day 5 to Day 8 at 0.3 mg kg^−1 dose, and urine samples were collected from Day 6 to Day 8 for glucose excretion analysis; cats were dosed daily with F16D-V3 (0.1 mL kg^−1) from Day 9 to Day 12 at 1 mg kg^−1 dose, and urine samples collected from Day 10 to Day 12 for glucose excretion analysis; and cats were dosed daily with F16D (0.1 mL kg^−1) from Day 13 to Day 16 at 3 mg kg^−1 dose, and urine samples were collected from Day 14 to Day 16 for glucose excretion analysis.
Urine samples were analyzed using a HITACHI 7600-010 automatic biochemistry analyzer. Urine glucose and creatinine concentrations were measured. […]

The test system of data set [4] is renal glucose reuptake. As to the kind of experiment: Urinary glucose excretion in cats after tablet dosing. To be noted: healthy cats, tablets, corrected for assay. The data set is classed as in vivo, cat. As to the method:
A dose range-finding study was conducted with tablets prepared using a polacrilex resin slurry process. For the evaluation of pharmacodynamics, animals were fed canned food, to promote a constant daily urine volume and proper collection of urine samples. Water was supplied ad libitum.
All animals were administered test article at each dose level. The 2.5 mg dose was delivered as half of one 5 mg tablet cleaved with a pill cutter. The 5 mg dose was delivered as one 5 mg tablet per cat, the 10 mg dose was delivered as one 10 mg tablet per cat and the 30 mg dose was delivered as two 15 mg tablets per cat. For the pharmacokinetics study, test articles were dosed after the sampling of blood at pre-dose (0 h) time point. For the pharmacodynamics study, test articles were administered daily at 9:00-9:30 for four consecutive days and urine excreted by the animals for the last three days (after the dose and before next dose) was collected.
Collections were performed for three days to diminish the consequences of day-to-day variation of urine excretion. […] For convenience in referring to dose levels, the nominal dosages are used in this report, but calculations of dose-response relationships in mg kg^−1 were based on the measured bexagliflozin content.
The pharmacodynamics elicited by bexagliflozin delivered by tablets was also evaluated. […]

Data set [5] is described as follows: Solubility of bexagliflozin in aqueous media. To be noted: aqueous media at 37° C. The data set is classed as physicochemical.
For data set [6] the following is noted: humans; cited from earlier work.

As for `OC[C@H]1O[C@@H](c2ccc(Cl)c(Cc3ccc(OCCOC4CC4)cc3)c2)[C@H](O)[C@@H](O)[C@@H]1O` [Bexagliflozin, (2S,3R,4R,5S,6R)-2-(4-chloro-3-(4-(2-cyclopropoxyethoxy)benzyl)phenyl)-6-(hydroxymethyl)tetrahydro-2H-pyran-3,4,5-triol], in data set [1] (cats, capsules, linear regression with constrained intercept of 0), the “slope of AUC0-24 versus dose” value is on record as 762 ng h mL^−1 per mg kg^−1. Also, in data set [1] (in vivo, po), the Tmax lay in the range of 36 to 72 min, the clearance is 1.46 ± 0.24 L/h/kg, the half-life fell in the range of 174 to 354 min and the volume of distribution was in the range of 5.5 to 11.9 L/kg. The “total urinary glucose excreted over a period of 24 hours” value in the data set on renal glucose reuptake [2] (cats, capsule, 3 mg kg^−1) amounted to 4.78 g. For the same compound, the ED50 of glucosuria in the data set on renal glucose reuptake [2] (healthy cats, capsules) turned out to be 0.56 mg/kg. Also, in the data set with renal glucose reuptake [3], the “half-maximal dose (ED50) for daily glucose excretion” value was found to be 0.383 mg/kg/day. For the same compound, the “maximum daily glucose excretion (predicted)” value in the data set with renal glucose reuptake [3] (0.1 to 3 mg kg^−1) is recorded as 7854 mg. Further, the “ED50 for UGE” value in the data set with renal glucose reuptake [4] is 0.505 mg/kg. In data set [5], this compound displayed a solubility of around 500 µg/mL (≈ 1080 µM). Besides, the “hazard ratio for the reduction in major adverse cardiovascular events” value in data set [6] is 0.774.
